How the values were obtained:
[1] = system: Leukotriene D4 induced respiratory constriction; assay: Leukotriene D4 induced respiratory constriction test; format: in vivo; conditions: p.o. 1 hr before i.v. LTD4; anesthetized Hartley male guinea pigs; respiratory inner pressure
Method: Leukotriene D4 Induced Respiratory Constriction Test
Respiratory constriction was measured by modifying the method of Konzett and Rossler (Arch. Exp. Pathol. Pharmakol., 195, pp. 71-74 (1940)). Hartley male guinea pigs (400 to 500 g body weight, Nippon SLC Co.) were anesthetized with pentobarbital (50 mg/kg, s.c.), and a cannula was inserted into the trachea to carry out artificial ventilation with an artificial ventilator (manufactured by Harvard Co., Model 683). An inner pressure of the respiratory tract was measured by a differential pressure transducer (Nihon Koden, TP-603T) connected to the respiratory cannula and it is used as an index of respiratory constriction.
LTD4 (0.03, 0.06, 0.13, 0.25, 0.5, 1 and 2 μg/kg, Sigma Co.) was intravenously administered from a cannula inserted into the right jugular vein from a low dose with an interval of 5 minutes to cause a respiratory constriction reaction and an increased amount of a respiratory inner pressure was measured. Test compound was suspended in 0.5% sodium carboxymethyl cellulose aqueous solution, and orally administered 1 hour before administration of LTD4. Animals were fasted for 24 hours before administration of the Test compound.
A2=(Dose of Compound administered)/{(ED50 of group to which Compound was added)/(ED50 of control group)−1}

Leukotriene D4 receptor = molecular target: T1, Leukotriene D4 receptor (Cavia porcellus, UniProt Q2NNR5); assay: Leukotriene D4 receptor binding test; conditions: binding inhibition constant (Ki) vs [3H] LTD4 0.2 nM, lung cell membrane fraction from guinea pigs, 25° C. for 30 minutes; for Ki: read-out: pKi value (converted)
T1 construct: As a receptor sample, a lung cell membrane fraction from guinea pigs was used; from tissue; host or cells: lung membrane fraction of Hartley male guinea pigs
T1 sequence (Q2NNR5 1-340): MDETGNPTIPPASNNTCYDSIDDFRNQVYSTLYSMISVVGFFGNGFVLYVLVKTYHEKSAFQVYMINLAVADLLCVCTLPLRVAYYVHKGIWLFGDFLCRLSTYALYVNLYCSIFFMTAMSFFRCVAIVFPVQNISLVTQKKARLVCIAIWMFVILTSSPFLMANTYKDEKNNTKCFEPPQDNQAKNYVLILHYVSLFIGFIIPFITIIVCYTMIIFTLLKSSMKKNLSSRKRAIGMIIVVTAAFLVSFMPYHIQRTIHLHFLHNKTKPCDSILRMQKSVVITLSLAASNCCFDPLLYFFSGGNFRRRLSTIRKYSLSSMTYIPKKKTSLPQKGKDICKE
Method: Leukotriene D4 Receptor Binding Test
As a receptor sample, a lung cell membrane fraction from guinea pigs was used. Preparation of the membrane fraction was carried out according to the method of Ahn et al. (Eur. J. Pharmacol., 127, 153-155 (1986)). Lungs of Hartley male guinea pigs (400 to 500 g body weight, Nippon SLC Co.) were extracted, and perfused with a physiological saline, and then, adding 10 mM of PIPES, 10 mM of MgCl2 and 10 mM of CaCl2 buffer (pH 7.5) to the lung tissue and the mixture was homogenized. This homogenate was centrifuged at 70,000 xg for 10 minutes to obtain a membrane fraction.
Leukotriene D4 (LTD4) recepter binding test was carried out according to the method of Aharony, et al. (J. Pharmacol. Expl.Ther., 243, 921-926 (1987)). To 0.42 mg of the receptor sample were added 10 mM of PIPES, 10 mM of MgCl2 and 10 mM of CaCl2 buffer (pH 7.5) to make the total amount of 480 μl, and 10 μl of [^3H] LTD4 (NEN Life Science Products Co.) and 10 μl of a Test compound in dimethylsulfoxide were added to the mixture, and the resulting mixture was incubated at 25° C. for 30 minutes. The mixtures thus incubated were filtered through a glass fiber filter (Whatman Co., GF/C) using cell harvester (Brandel Co., M-30R). The filter were washed with 10 mM of Tris. and 100 mM of NaCl buffer (pH 7.5), and 5 ml of a liquid scintillator (NACALAI TESQUE INC., clearsol I), and radioactivity was measured by a liquid scintillation analyzer (Packard Co., 2000CA). When a dissociation constant (Kd) of LTD4 was to be obtained, [^3H] LTD4 with 0.03 to 0.5 nM was used, and 1 μM of non-radioactive LTD4 was added. When a binding inhibition constant (Ki) of the Test compound is to be meaured, [^3H] LTD4 with 0.2 nM was used. Kd and Ki are calculated according to the method of Bennett et al. (Neurotransmitter Receptor Binding, 2nd ed., edited by H. I. Yamamura et al., pp. 61-89, Raven Press (1985)).

Molecule | A2 (dose of Test compound required for shifting two-times the LTD4 dose-reaction curve of control group to higher dose side) [1] | Ki (Leukotriene D4 receptor) | melting point | pKi value (Leukotriene D4 receptor)
O=C(O)C(F)(F)F.O=C(O)CC1(CSC2c3cc(/C=C/c4ccc5cc(F)c(F)cc5n4)ccc3OCc3c(F)cccc32)CC1 (stereo not drawn) [Example 3, {1-[[2-[(E)-2-(6,7-difluoro-2-quinolinyl)ethenyl]-7-fluoro-6,11-dihydrodibenz[b,e]oxepin-11-yl]thiomethyl]cyclopropyl}acetic acid trifluoroacetic acid salt] | 3.6 µg/kg | 0.158 nM | 174 to 179 °C | –
O=C([O-])CCSC1c2ccccc2COc2ccc(/C=C/c3ccc4cc(F)c(F)cc4n3)cc21.[Na+] (stereo not drawn) [Example 5 (b), Sodium 3-{[2-[(E)-2-(6,7-difluoro-2-quinolinyl)ethenyl]-6,11-dihydrodibenz[b,e]oxepin-11-yl]thio}propionate] | 2.6 µg/kg | 0.251 nM | 213 to 216 °C | –
O=C([O-])CC1(CSC2c3ccccc3COc3ccc(/C=C/c4ccc5cc(F)c(F)cc5n4)cc32)CC1.[Na+] (stereo not drawn) [Example 7 (b), Sodium {1-[[2-[(E)-2-(6,7-difluoro-2-quinolinyl)ethenyl]-6,11-dihydrodibenz[b,e]oxepin-11-yl]thiomethyl]cyclopropyl}acetate] | 3.5 µg/kg | 0.2 nM | 137 to 139 °C | –
O=C(O)CCSC1c2cc(/C=C/c3ccc4cc(F)c(F)cc4n3)ccc2OCc2c(F)cccc21 (stereo not drawn) [Example 12, 3-{[2-[(E)-2-(6,7-difluoro-2-quinolinyl)ethenyl]-7-fluoro-6,11-dihydrodibenz[b,e]oxepin-11-yl]thio}propionic acid] | 4.9 µg/kg | 0.158 nM | 224 to 227 °C | –
N#Cc1cccc2c1COc1ccc(/C=C/c3ccc4cc(F)c(F)cc4n3)cc1C2SCCC(=O)[O-].[Na+] (stereo not drawn) [Example 13 (b), Sodium 3-{[7-cyano-2-[(E)-2-(6,7-difluoro-2-quinolinyl)ethenyl]-6,11-dihydrodibenz[b,e]oxepin-11-yl]thio}propionate] | 7.8 µg/kg | 0.631 nM | 179 to 182 °C | –
C#Cc1cccc2c1COc1ccc(/C=C/c3ccc4cc(F)c(F)cc4n3)cc1C2SCCC(=O)[O-].[Na+] (stereo not drawn) [Example 15, Sodium 3-{[2-[(E)-2-(6,7-difluoro-2-quinolinyl)ethenyl]-7-ethynyl-6,11-dihydrodibenz[b,e]oxepin-11-yl]thio}propionate] | 0.8 µg/kg | 0.158 nM | 186 to 189 °C | –
C[C@@H](CSC1c2ccccc2COc2ccc(/C=C/c3ccc4ccc(F)cc4n3)cc21)C(=O)[O-].[Na+] (stereo partly drawn) [Example 19, Sodium 3-{[2-[(E)-2-(7-fluoro-2-quinolinyl)ethenyl]-6,11-dihydrodibenz[b,e]oxepin-11-yl]thio}-2-(R)-methylpropionate] | 2.4 µg/kg | 0.2 nM | 195 to 205 °C | –
C[C@@H](CSC1c2ccccc2COc2ccc(/C=C/c3ccc4ccc(Cl)cc4n3)cc21)C(=O)[O-].[Na+] (stereo partly drawn) [Example 23, Sodium 3-{[2-[(E)-2-(7-chloro-2-quinolinyl)ethenyl]-6,11-dihydrodibenz[b,e]oxepin-11-yl]thio}-2-(R)-methylpropionate] | 5.7 µg/kg | 0.501 nM | 207 to 217 °C | –
O=C([O-])CCSC1c2ccccc2COc2ccc(/C=C/c3ccc4c(F)cc(F)cc4n3)cc21.[Na+] (stereo not drawn) [Example 32 (b), Sodium 3-{[2-[(E)-2-(5,7-difluoro-2-quinolinyl)ethenyl]-6,11-dihydrodibenz[b,e]oxepin-11-yl]thio}propionate] | 9.4 µg/kg | 0.794 nM | 210 to 213 °C | –
O=C([O-])CCSC1c2ccccc2COc2ccc(/C=C/c3ccc4c(F)c(F)c(F)cc4n3)cc21.[Na+] (stereo not drawn) [Example 34 (b), Sodium 3-{[2-[(E)-2-(5,6,7-trifluoro-2-quinolinyl)ethenyl]-6,11-dihydrodibenz[b,e]oxepin-11-yl]thio}propionate] | 7.7 µg/kg | 0.631 nM | 235 to 237 °C | –
O=C([O-])CC1(CSC2c3ccccc3COc3ccc(/C=C/c4ccc5c(F)c(F)c(F)cc5n4)cc32)CC1.[Na+] (stereo not drawn) [Example 35 (b), Sodium {1-[[2-[(E)-2-(5,6,7-trifluoro-2-quinolinyl)ethenyl]-6,11-dihydrodibenz[b,e]oxepin-11-yl]thiomethyl]cyclopropyl}acetate] | 6.6 µg/kg | 0.398 nM | 195 to 198 °C | –
O=C([O-])CCSC1c2ccccc2CCc2ccc(/C=C/c3ccc4cc(F)c(F)cc4n3)cc21.[Na+] (stereo not drawn) [Example 40, Sodium 3-{[3-[(E)-2-(6,7-difluoro-2-quinolinyl)ethenyl]-10,11-dihydro-5H-dibenz[a,d]cyclohepten-5-yl]thio}propionate] | 8.8 µg/kg | 0.794 nM | 179 to 182 °C | –
O=C([O-])CCCC1c2ccccc2COc2ccc(/C=C/c3ccc4cc(F)c(F)cc4n3)cc21.[Na+] (stereo not drawn) [Example 51 (c), Sodium 4-[2-[(E)-2-(6,7-difluoro-2-quinolinyl)ethenyl]-6,11-dihydrodibenz[b,e]oxepin-11-yl]butanoate] | 3.6 µg/kg | 0.158 nM | – | –
CC(C)(CC(=O)O)SC1c2ccccc2COc2ccc(/C=C/c3ccc4cc(F)c(F)cc4n3)cc21 (stereo not drawn) [Example 58, 3-{[2-[(E)-2-(6,7-difluoro-2-quinolinyl)ethenyl]-6,11-dihydrodibenz[b,e]oxepin-11-yl]thio}-3-methylbutanoic acid] | 6.4 µg/kg | 0.501 nM | – | –
Sodium [2-[(E)-2-(6,7-difluoro-2-quinolinyl)ethenyl]-6,11-dihydrodibenz[b,e]oxepin-11-yl]thioacetate [Example 4] | 3.7 µg/kg | – | – | 9.8
